Results reported in patent US11560395B2, “Azithromycin derivatives containing a phosphonium ion as anticancer agents” (Rising Tide Foundation, priority 2017, dated 2023).

test system: MDA-231 cancer cells; assay: Inhibition of proliferation assay, cell confluence (IncuCyte live cell imaging); assay type: cell-based; conditions: MDA-231 cells, concentration 10 uM; relative confluence normalised to time zero, images every 3 h over 4-5 d
Description: Inhibition of Proliferation Assay Cell Confluence The confluence value is a surrogate for cell proliferation and growth. The value is expressed as a percent confluence, which represents the fraction of culture dish-surface that is occupied by cells. As the number of cells in the dish increases over time due to proliferation, so will their coverage of that surface increase. Expansion of the cell population on the cell culture-dish surface and confluence have mostly a linear relationship until the cells on the plate surface begin to reach saturation or maximum density. Confluence is determined based on image analysis. Image based software can identify objects in the image field base on changes to pixel density in a grey scale image. The software can then assign a mask to those pixels within the object. Objects can be ‘gated’ out based on size and shape. To determine cell confluence, images of cells are first masked as objects. The surface area of the image that is masked is measured and compared to the total surface area of the culture dish surface to obtain a percent confluence. MDA-231 cancer cells were obtained from ATCC. Cells were cultured in Dulbecco's Modified Eagle Medium (DMEM) supplemented with 10% Fetal Bovine Serum (FBS), 2 mM Glutamax, 1 mM Non Essential Amino Acid (NEAA) solution and 1 mM sodium pyruvate. Compounds were dissolved in DMSO at 10 mM and diluted in cellular medium and tested at 10 μM (micromolar). Final DMSO concentrations were <0.1%. Images were acquired with an IncuCyte Live Cell Imaging microscopy (Essen Bioscience) at every 3 h under cell culture conditions with 10× objective over 4-5 d. Cell confluence was calculated from one field of view per well using the IncuCyte in-built algorithm. Relative confluence values were obtained by normalising each value to the time zero value in each sample.

Row | Compound | % Confluence
1 | CC[C@H]1OC(=O)[C@H](C)[C@@H](O[C@H]2C[C@@](C)(OC)[C@@H](O)[C@H](C)O2)[C@H](C)[C@@H](O[C@@H]2O[C@H](C)C[C@H](N(C)C)[C@H]2O)[C@](C)(O)C[C@@H](C)CN(C)[C@H](C)[C@@H](OC(=O)NCCCCCCCCCC[P+](c2ccccc2)(c2ccccc2)c2ccccc2)[C@]1(C)O.[Br-] [Example 19, (2R,3R,4R,5R,8R,10R,11R,12S,13S,14R)-11-{[(2S,3R,4S,6R)-4-(dimethylamino)-3-hydroxy-6-methyloxan-2-yl]oxy}-2-ethyl-3,10-dihydroxy-13-{[(2R,4R,5S,6S)-5-hydroxy-4-methoxy-4,6-dimethyloxan-2-yl]oxy}-3,5,6,8,10,12,14-heptamethyl-15-oxo-1-oxa-6-azacyclopentadecan-4-yl N-[10-(triphenylphosphoniumyl)decyl]carbamate bromide] | 9.7%
2 | CC[C@H]1OC(=O)[C@H](C)[C@@H](O)[C@H](C)[C@@H](O)[C@](C)(O)C[C@@H](C)CN(C(=O)CCCCCCCCCCC[PH](c2ccccc2)(c2ccccc2)c2ccccc2)[C@H](C)[C@@H](O)[C@]1(C)O [Example 13, {12-[(2R,3S,4R,5R,8R,10R,11R,12S,13S,14R)-2-ethyl-3,4,10,11,13-pentahydroxy-3,5,8,10,12,14-hexamethyl-15-oxo-1-oxa-6-azacyclopentadecan-6-yl]-12-oxododecyl}triphenylphosphonium hexafluorophosphate(V)] | 11%
3 | CC[C@H]1OC(=O)[C@H](C)[C@@H](O[C@H]2C[C@@](C)(OC)[C@@H](O)[C@H](C)O2)[C@H](C)[C@@H](O[C@@H]2O[C@H](C)C[C@H](N(C)C)[C@H]2O)[C@](C)(O)C[C@@H](C)CN(C(=O)CCCCCCCCCC[P+](c2ccccc2)(c2ccccc2)c2ccccc2)[C@H](C)[C@@H](O)[C@]1(C)O.[Cl-] [Example 25, {11-[(2R,3S,4R,5R,8R,10R,11R,12S,13S,14R)-11-{[(2S,3R,4S,6R)-4-(dimethylamino)-3-hydroxy-6-methyloxan-2-yl]oxy}-2-ethyl-3,4,10-trihydroxy-13-{[(2R,4R,5S,6S)-5-hydroxy-4-methoxy-4,6-dimethyloxan-2-yl]oxy}-3,5,8,10,12,14-hexamethyl-15-oxo-1-oxa-6-azacyclopentadecan-6-yl]-11-oxoundecyl}triphenylphosphonium chloride] | 4.4%
4 | CC[C@H]1OC(=O)[C@H](C)[C@@H](O[C@H]2C[C@@](C)(OC)[C@@H](O)[C@H](C)O2)[C@H](C)[C@@H](O[C@@H]2O[C@H](C)C[C@H](N(C)C)[C@H]2O)[C@](C)(O)C[C@@H](C)CN(C(=O)CCCCC[PH](c2ccccc2)(c2ccccc2)c2ccccc2)[C@H](C)[C@@H](O)[C@]1(C)O [Example 6, {6-[(2R,3S,4R,5R,8R,10R,11R,12S,13S,14R)-11-{[(2S,3R,4S,6R)-4-(dimethylamino)-3-hydroxy-6-methyloxan-2-yl]oxy}-2-ethyl-3,4,10-trihydroxy-13-{[(2R,4R,5S,6S)-5-hydroxy-4-methoxy-4,6-dimethyloxan-2-yl]oxy}-3,5,8,10,12,14-hexamethyl-15-oxo-1-oxa-6-azacyclopentadecan-6-yl]-6-oxohexyl}triphenylphosphonium hexafluorophosphate(V)] | 118.9%
5 | CC[C@H]1OC(=O)[C@H](C)[C@@H](O[C@H]2C[C@@](C)(OC)[C@@H](O)[C@H](C)O2)[C@H](C)[C@@H](O[C@@H]2O[C@H](C)C[C@H](N(C)C)[C@H]2O)[C@](C)(O)C[C@@H](C)CN(CCCCCCCCC[PH](c2ccccc2)(c2ccccc2)c2ccccc2)[C@H](C)[C@@H](O)[C@]1(C)O [Example 15, {9-[(2R,3S,4R,5R,8R,10R,11R,12S,13S,14R)-11-{[(2S,3R,4S,6R)-4-(dimethylamino)-3-hydroxy-6-methyloxan-2-yl]oxy}-2-ethyl-3,4,10-trihydroxy-13-{[(2R,4R,5S,6S)-5-hydroxy-4-methoxy-4,6-dimethyloxan-2-yl]oxy}-3,5,8,10,12,14-hexamethyl-15-oxo-1-oxa-6-azacyclopentadecan-6-yl]nonyl}triphenylphosphonium iodide] | 10.7%
6 | CC[C@H]1OC(=O)[C@H](C)[C@@H](O[C@H]2C[C@@](C)(OC)[C@@H](O)[C@H](C)O2)[C@H](C)[C@@H](O[C@@H]2O[C@H](C)C[C@H](N(C)C)[C@H]2O)[C@](C)(O)C[C@@H](C)CN(C(=O)CCCCCCCCCCCCC[P+](c2ccccc2)(c2ccccc2)c2ccccc2)[C@H](C)[C@@H](O)[C@]1(C)O [Example 1, {14-[(2R,3S,4R,5R,8R,10R,11R,12S,13S,14R)-11-{[(2S,3R,4S,6R)-4-(dimethylamino)-3-hydroxy-6-methyloxan-2-yl]oxy}-2-ethyl-3,4,10-trihydroxy-13-{[(2R,4R,5S,6S)-5-hydroxy-4-methoxy-4,6-dimethyloxan-2-yl]oxy}-3,5,8,10,12,14-hexamethyl-15-oxo-1-oxa-6-azacyclopentadecan-6-yl]-14-oxotetradecyl}triphenylphosphonium hexafluorophosphate(V)] | 4.2%
7 | CC[C@H]1OC(=O)[C@H](C)[C@@H](O[C@H]2C[C@@](C)(OC)[C@@H](O)[C@H](C)O2)[C@H](C)[C@@H](O[C@@H]2O[C@H](C)C[C@H](N(C)C)[C@H]2O)[C@](C)(O)C[C@@H](C)CN(CCCCCCCC[P+](c2ccccc2)(c2ccccc2)c2ccccc2)[C@H](C)[C@@H](O)[C@]1(C)O.[I-] [Example 7, {8-[(2R,3S,4R,5R,8R,10R,11R,12S,13S,14R)-11-{[(2S,3R,4S,6R)-4-(dimethylamino)-3-hydroxy-6-methyloxan-2-yl]oxy}-2-ethyl-3,4,10-trihydroxy-13-{[(2R,4R,5S,6S)-5-hydroxy-4-methoxy-4,6-dimethyloxan-2-yl]oxy}-3,5,8,10,12,14-hexamethyl-15-oxo-1-oxa-6-azacyclopentadecan-6-yl]octyl}triphenylphosphonium iodide] | 23.3%
8 | CC[C@H]1OC(=O)[C@H](C)[C@@H](O[C@H]2C[C@@](C)(OC)[C@@H](O)[C@H](C)O2)[C@H](C)[C@@H](O[C@@H]2O[C@H](C)C[C@H](N(C)C)[C@H]2O)[C@](C)(O)C[C@@H](C)CN(C(=O)CCOCCOCC[P+](c2ccccc2)(c2ccccc2)c2ccccc2)[C@H](C)[C@@H](O)[C@]1(C)O.[Br-] [Example 23, [2-(2-{3-[(2R,3S,4R,5R,8R,10R,11R,12S,13S,14R)-11-{[(2S,3R,4S,6R)-4-(dimethylamino)-3-hydroxy-6-methyloxan-2-yl]oxy}-2-ethyl-3,4,10-trihydroxy-13-{[(2R,4R,5S,6S)-5-hydroxy-4-methoxy-4,6-dimethyloxan-2-yl]oxy}-3,5,6,8,10,12,14-hexamethyl-15-oxo-1-oxa-6-azacyclopentadecan-6-yl]-3-oxopropoxy}ethoxy)ethyl]triphenylphosphonium bromide] | 118%
